Converted amounts (≈) assume the structure as drawn. “Also recorded” adds a separate entry of the source. Where two headings read alike, the source gives them in different places.
Experiments:
[1] = system: Eukaryotic system (eukaryotic cytoplasmic ribosome); test: Eukaryotic translation inhibition, coupled transcription/translation, luciferase detection; type: biochemical; settings: for Prokaryotic versus Eukaryotic selectivity IC50^Euk/IC50^Pro: ratio of eukaryotic to prokaryotic translation inhibition IC50; for more specific to the eukaryotic ribosome than parent (NB30 or NB54): comparison of eukaryotic IC50 values with parent structure
Text: Prokaryotic and eukaryotic translation inhibition was quantified in coupled transcription/translation assays by using active luciferase detection, performed as described hereinabove. […] In all biological tests, all tested aminoglycosides were in their sulfate salt forms. The concentrations reported refer to that of the free amine form of each aminoglycoside.
(§1) In all biological experiments conducted, all tested aminoglycosides were in their sulfate salt forms. The concentrations reported in Table 3 refer to that of the free amine form of each aminoglycoside. Prokaryotic and eukaryotic translation inhibition was quantified in coupled transcription/translation assays as previously described. The half-maximal concentration (IC50) values were obtained from fitting concentration response curves to the data of at least three independent experiments, using GraFit 5 software.

[2] = system: nonsense mutation constructs R3X, R245X, G542X, W1282X, Q70X, R3381X (PCDH15, CFTR, IDUA, Dystrophin); test: In vitro stop codon readthrough assay, p2Luc dual luciferase, TNT reticulocyte lysate; type: biochemical; settings: cell-free, mutations tested; comparison in words from FIGS. 2, 3, 5-7
Text: DNA fragments derived from PCDH15, CFTR, Dystrophin and IDUA cDNAs, including the tested nonsense mutation or the corresponding wild type (wt) codon, and four to six upstream and downstream flanking codons were created by annealing following pairs of complementary oligonucleotides:
The fragments were inserted in frame into the polylinker of the p2Luc plasmid between either BamHI and SacI (p.R3X and p.R245X), or SalI and SacI (all the rest) restriction sites.
For the in vitro readthrough assays, the obtained plasm ids, with addition of the tested aminoglycosides were transcribed and translated using the TNT Reticulocyte Lysate Quick Coupled Transcription/Translation System. Luciferase activity was determined after 90 minutes of incubation at 30° C., using the Dual Luciferase Reporter Assay System (Promega™).
Initially, the influence of the chiral C5″-methyl group on readthrough potential was evaluated on the pseudo-trisaccharides NB118 and NB119 by using a dual luciferase reporter assay system as described hereinabove. Briefly, DNA fragments were cloned between BamHI and SacI restriction sites of the p2luc vector and the obtained constructs were transcribed and translated using TNT quick coupled transcription/translation system. The amount of the translated products was evaluated using the dual luciferase reporter assay system and used to calculate the suppression level.

[3] = system: B. subtilis ATCC6633; test: Antibacterial activity MIC, double-microdilution; type: cell-based, Bacillus subtilis; settings: read-out: Antibacterial activity MIC B. subtilis ATCC6633
[4] = Cell toxicity LC50 in HEK-293 cells; type: cell-based; settings: human
Description: (§2) In order to ensure suitable cell viability for each of the tested compounds at the concentrations tested, cell toxicity was evaluated for each compound by measuring the half-maximal-lethal concentration value (LC50 values) in HEK-293 and HFF (human foreskin fibroblasts) cells.
(§3) The percentages of cell viability were calculated as the ratio between the numbers of living cells in cultures grown in the presence of the tested compounds, versus cultures grown under the identical protocol but without the tested compound. The results represent averages of at least three independent experiments.
(§4) The half-maximal lethal concentration (LC50) values were obtained from fitting concentration-response curves to the data of at least three independent experiments, using GraFit 5 software.

[5] = system: E. coli R477/100; test: Antibacterial activity MIC, double-microdilution; type: cell-based, Escherichia coli; settings: read-out: Antibacterial activity MIC E. coli R477/100
[6] = Cell toxicity LC50 in HFF cells; type: cell-based; settings: human
Description: as §2, §3, §4

[7] = molecular target: Prokaryotic system (prokaryotic ribosome); test: Prokaryotic translation inhibition, coupled transcription/translation, luciferase detection; type: biochemical
Description: Prokaryotic and eukaryotic translation inhibition was quantified in coupled transcription/translation assays by using active luciferase detection, performed as described hereinabove. […] All the experiments were performed in duplicates and analogous results were obtained in three different experiments. In all biological tests, all tested aminoglycosides were in their sulfate salt forms. The concentrations reported refer to that of the free amine form of each aminoglycoside.
as §1, with “software. All the experiments were performed in duplicates and analogous results were obtained in three different experiments.” for “software.”

[8] = system: nonsense mutation constructs R3X, R245X, Q70X, W1282X, G542X in HEK-293 cells; test: Ex vivo stop codon readthrough assay, p2luc constructs transfected to HEK-293 cells; type: cell-based, human; settings: ex vivo in HEK-293, all the mutations tested, FIGS. 4, 8-10
Description: For the ex vivo readthrough assays, the constructs harboring the R3X, R245X, Q70X and W1282X mutations were transfected to HEK-293 cells with Lipofectamine 2000 (Invitrogen) and addition of the tested compounds was performed 6 hours post transfection. The cells were harvested following 16 hours of incubation with the tested aminoglycosides. Stop codon readthrough was calculated as previously described (see, Grentzmann, G. et al., RNA, 1998, 4, p. 479).
The constructs were transfected into a human embryonic kidney cell line (HEK-293) and incubated with varying concentrations of NB122, NB123, NB54 and the control drug gentamicin, and the results are presented in FIGS. 4A-D.
As described hereinabove, the constructs of p2luc plasmid harboring the R3X, R245X, Q70X and W1282X mutations were transfected to HEK-293 cells using lipofectamine2000 and the tested compounds were added 6 hours post transfection. Cells were harvested after 16 hours incubation and luciferase activity was determined using the dual luciferase reporter assay system (Promega™). Stop codon readthrough was calculated as described previously, and the results are averages of at least three independent experiments.

[9] = system: HEK-293 cells; test: Cell toxicity LC50 in HEK-293 cells; type: cell-based
Description: as §2, §3, §4

[10] = system: HFF (human foreskin fibroblasts) cells; test: Cell toxicity LC50 in HFF cells; type: cell-based
Description: as §2, §3, §4

[11] = Bacillus subtilis, ATCC6633, Table 1, free amine concentration, sulfate salts tested
[12] = Table 1, read-out: Translation inhibition Eukaryotic System IC50
[13] = Table 3, read-out: Translation Inhibition IC50^Euk
[14] = HEK-293 cells, Table 1, read-out: Cell toxicity LC50 HEK-293
[15] = Escherichia coli, R477/100, Table 1
[16] = HFF (human foreskin fibroblast) cells, Table 1, read-out: Cell toxicity LC50 HFF
[17] = Table 1, read-out: Translation inhibition Prokaryotic system IC50
[18] = Table 3, read-out: Translation Inhibition IC50^Pro
[19] = Table 2, read-out: Translation Inhibition Eukaryotic System IC50
[20] = Table 2, read-out: Translation Inhibition Prokaryotic system IC50

| Molecule | Prokaryotic versus Eukaryotic selectivity IC50^Euk/IC50^Pro [1] | in vitro readthrough activity (stop codon suppression level) [2] | MIC [3, 11] [µM] | IC50 [1, 12] [µM] | IC50 [1, 13] [µM] | CC50 [4, 14] [µM] | MIC [5, 15] [µM] | CC50 [6, 16] [µM] | IC50 [7, 17] [µM] | IC50 [7, 18] [µM] | observed efficacy of aminoglycoside-induced readthrough, order [8] | other results |
| --- | --- | --- | --- | --- | --- | --- | --- | --- | --- | --- | --- | --- |
| NC1C(OCOC2C(N)[C@H](O[C@H]3C(N)C[C@H](N)C(O)C3O)OC(CO)[C@@H]2O)[C@H](O)C(CO)O[C@@H]1O[C@@H]1C(N)C[C@@H](N)C(O)C1O (stereo partly drawn) [NB33, reference compound] | about 2 | essentially no readthrough activity; also recorded: almost no readthrough activity | – | – | – | – | – | – | – | – | – | – |
| C[C@H](N)[C@H]1O[C@@H](OC2C(O)[C@H](N)CC(N)[C@H]2O[C@H]2OC(CO)[C@@H](O)C(O)C2N)C(O)C1O (stereo partly drawn) [NB118, 5-O-(5-Amino-5,6-dideoxy-α-L-talofuranosyl)-paromamine] | 7.9 | significantly better than that of the clinical drug gentamicin | 83 | 16 | 15.5 ± 1.3 | 23500 | 2660 (≈ 1250 µg/mL) | 21800 ± 500 | 1.96 ± 0.206 | 1.96 ± 0.206 | – | more specific to the eukaryotic ribosome than parent (NB30 or NB54) [1]: 1.9 fold |
| C[C@@H](N)[C@H]1O[C@@H](OC2C(O)[C@H](N)CC(N)[C@H]2O[C@H]2OC(CO)[C@@H](O)C(O)C2N)C(O)C1O (stereo partly drawn) [NB119, 5-O-(5-Amino-5,6-dideoxy-β-D-allofuranosyl)-paromamine] | 13 | comparatively small | 78 | 28 ± 1.1 | 28 ± 1.1 | 19800 ± 400 | 4990 (≈ 2340 µg/mL) | 20100 ± 600 | 2.13 ± 0.478 | 2.13 ± 0.478 | – | – |
| C[C@H](N)[C@H]1O[C@@H](OC2C(O)[C@H](NC(=O)[C@@H](O)CCN)CC(N)[C@H]2O[C@H]2OC(CO)[C@@H](O)C(O)C2N)C(O)C1O (stereo partly drawn) [NB122, 5-O-(5-Amino-5,6-dideoxy-α-L-talofuranosyl)-1-N—[(S)-4-amino-2-hydroxy-butanoyl]paromamine] | 2.3 | induced the highest level of readthrough | 33 | 5.2 | 5.2 ± 0.7 | 10100 | 1070 (≈ 608 µg/mL) | 8100 ± 1400 | 2.27 ± 0.196 | 2.27 ± 0.196 | NB122≥NB123>NB54>gentamicin | more specific to the eukaryotic ribosome than parent (NB30 or NB54) [1]: 4.6 fold |
| C[C@@H](N)[C@H]1O[C@@H](OC2C(O)[C@H](NC(=O)[C@@H](O)CCN)CC(N)[C@H]2O[C@H]2OC(CO)[C@@H](O)C(O)C2N)C(O)C1O (stereo partly drawn) [NB123, 5-O-(5-Amino-5,6-dideoxy-β-D-allofuranosyl)-1-N—[(S)-4-amino-2-hydroxy-butanoyl] paromamine] | 5.7 | – | 33 | 4.6 ± 0.6 | 4.6 ± 0.6 | 13900 ± 1300 | 1060 (≈ 602 µg/mL) | 19300 ± 1500 | 0.811 ± 0.059 | 0.811 ± 0.059 | NB122≥NB123>NB54>gentamicin | – |
| C[C@H](N)[C@H]1O[C@@H](OC2C(O)[C@H](N)CC(N)[C@H]2O[C@H]2OC([C@@H](C)O)[C@@H](O)C(O)C2N)C(O)C1O (stereo partly drawn) [NB124, 6′-(R)-Methyl-5-O-(5-amino-5,6-dideoxy-α-L-talofuranosyl)-Paromamine] | 1.3 | improved significantly compared to that of the clinical drug gentamicin | – | – | 1.49 ± 0.08 | – | – | – | – | 1.1 ± 0.185 | NB124>NB125>NB74>gentamicin | MIC ([3]; Bacillus subtilis, ATCC6633, Table 2): 96 µM (≈ 46.3 µg/mL); IC50 [1, 19]: 1.49 ± 0.08 µM; CC50 ([4]; HEK-293 cells, Table 2, read-out: Cell toxicity LC50 HEK-293): 5400 ± 450 µM; MIC ([5]; Escherichia coli, R477/100, Table 2): 768 µM (≈ 371 µg/mL); CC50 ([6]; HFF (human foreskin fibroblast) cells, Table 2, read-out: Cell toxicity LC50 HFF): 4750 ± 330 µM; IC50 [7, 20]: 1.1 ± 0.185 µM |
| NC[C@@H]1O[C@H](O[C@H]2[C@@H](O)[C@H](O[C@@H]3[C@@H](O)[C@H](N)C[C@H](N)[C@H]3O[C@H]3O[C@H](CO)[C@@H](O)[C@H](O)[C@H]3N)O[C@@H]2CO)[C@H](N)[C@@H](O)[C@@H]1O [Paromomycin, reference compound] | 1,118 | – | 1.2 | 57 ± 4 | 57 ± 4 | – | 22 (≈ 13.5 µg/mL) | – | 0.051 ± 0.005 | 0.051 ± 0.005 | – | more selective to prokaryotic versus eukaryotic ribosome [1]: 1,118 fold; CC50 [4]: 4100 ± 500 µM; CC50 [6]: 3100 ± 400 µM |
| Gentamicin [reference compound] | 2,214 | – | – | 62 ± 9 | 62 ± 9 | – | – | – | 0.028 ± 0.004 | 0.028 ± 0.004 | NB127 NB128>NB84>gentamicin | MIC ([3]; Table 1, free amine concentration, sulfate salts tested): <0.75 µM; MIC ([3]; Table 2): <0.75 µM; observed efficacy of aminoglycoside-induced readthrough, order ([8]; listed as gentamicin): NB122≥NB123>NB54>gentamicin; also recorded: NB124>NB125>NB74>gentamicin; more selective to prokaryotic versus eukaryotic ribosome [1]: 2,214 fold; IC50 [1, 19]: 62 ± 9 µM; CC50 ([9]; Table 1): 2500 ± 300 µM; CC50 ([9]; Table 2): 2650 ± 540 µM; MIC ([5]; Table 1): 6 µM; MIC ([5]; Table 2): 6 µM; CC50 ([10]; Table 1): 3200 ± 300 µM; CC50 ([10]; Table 2): 3210 ± 310 µM; IC50 [7, 20]: 0.028 ± 0.004 µM |
